pIC50: −log10 of the molar value.
How the values were obtained:
MCF7 = experiment: cells; type: functional; settings: Homo sapiens, MCF7, 96 h
Description: Growth inhibition of human MCF7 cells after 96 hrs by MTT assay

[1] = target: T1, Protein deacetylase HDAC6 (Homo sapiens, UniProt Q9UBN7); experiment: Inhibition of recombinant human HDAC6 using Boc-Lys(Ac)-AMC as substrate preincubated for 15 mins followed by substrate addition measured after 60 mins by fluorescence-based assay
T1 sequence (Q9UBN7 whole entry): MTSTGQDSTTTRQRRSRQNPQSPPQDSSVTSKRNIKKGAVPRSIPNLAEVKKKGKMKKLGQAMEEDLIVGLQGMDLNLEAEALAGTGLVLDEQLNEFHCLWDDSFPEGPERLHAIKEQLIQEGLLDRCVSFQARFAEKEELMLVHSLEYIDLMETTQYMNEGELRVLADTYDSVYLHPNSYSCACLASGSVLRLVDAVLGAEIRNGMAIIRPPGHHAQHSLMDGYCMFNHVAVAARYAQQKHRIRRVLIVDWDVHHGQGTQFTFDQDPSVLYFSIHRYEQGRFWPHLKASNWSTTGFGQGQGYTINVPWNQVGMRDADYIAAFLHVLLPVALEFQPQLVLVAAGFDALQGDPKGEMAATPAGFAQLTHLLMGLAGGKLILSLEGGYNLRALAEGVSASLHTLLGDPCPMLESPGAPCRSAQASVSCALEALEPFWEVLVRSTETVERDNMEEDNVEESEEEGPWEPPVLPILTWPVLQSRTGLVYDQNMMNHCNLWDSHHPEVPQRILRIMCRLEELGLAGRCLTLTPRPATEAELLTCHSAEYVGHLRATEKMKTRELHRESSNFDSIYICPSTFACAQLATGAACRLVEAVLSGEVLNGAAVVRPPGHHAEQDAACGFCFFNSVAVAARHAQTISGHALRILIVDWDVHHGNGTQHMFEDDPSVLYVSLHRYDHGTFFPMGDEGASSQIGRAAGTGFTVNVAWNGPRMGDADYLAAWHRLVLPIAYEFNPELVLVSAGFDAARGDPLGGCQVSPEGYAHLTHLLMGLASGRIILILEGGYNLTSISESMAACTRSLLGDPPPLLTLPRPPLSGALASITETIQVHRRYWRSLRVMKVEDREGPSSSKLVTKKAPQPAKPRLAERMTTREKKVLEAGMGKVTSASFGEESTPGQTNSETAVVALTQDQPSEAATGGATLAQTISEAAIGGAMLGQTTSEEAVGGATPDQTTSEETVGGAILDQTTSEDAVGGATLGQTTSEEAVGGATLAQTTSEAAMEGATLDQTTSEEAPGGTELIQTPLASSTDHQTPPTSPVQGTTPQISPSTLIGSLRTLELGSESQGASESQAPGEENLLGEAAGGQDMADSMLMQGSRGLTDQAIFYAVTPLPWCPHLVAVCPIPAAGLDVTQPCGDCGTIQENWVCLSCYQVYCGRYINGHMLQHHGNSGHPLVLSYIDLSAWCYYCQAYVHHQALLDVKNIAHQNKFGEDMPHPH

cells [2] = type: functional; settings: Homo sapiens, HCT-116, 96 h
Description: Growth inhibition of human HCT116 cells after 96 hrs by MTT assay

Histone deacetylase = experiment: Inhibition of HDAC in human HeLa cell nuclear extract using Boc-Lys(Ac)-AMC as substrate preincubated for 15 mins followed by substrate addition measured after 60 mins by fluorescence-based assay
Histone deacetylase 1 [3] = target: T2, Histone deacetylase 1 (Homo sapiens, UniProt Q13547); experiment: Inhibition of recombinant human HDAC1 using Boc-Lys(Ac)-AMC as substrate preincubated for 15 mins followed by substrate addition measured after 60 mins by fluorescence-based assay
T2 sequence (Q13547 whole entry): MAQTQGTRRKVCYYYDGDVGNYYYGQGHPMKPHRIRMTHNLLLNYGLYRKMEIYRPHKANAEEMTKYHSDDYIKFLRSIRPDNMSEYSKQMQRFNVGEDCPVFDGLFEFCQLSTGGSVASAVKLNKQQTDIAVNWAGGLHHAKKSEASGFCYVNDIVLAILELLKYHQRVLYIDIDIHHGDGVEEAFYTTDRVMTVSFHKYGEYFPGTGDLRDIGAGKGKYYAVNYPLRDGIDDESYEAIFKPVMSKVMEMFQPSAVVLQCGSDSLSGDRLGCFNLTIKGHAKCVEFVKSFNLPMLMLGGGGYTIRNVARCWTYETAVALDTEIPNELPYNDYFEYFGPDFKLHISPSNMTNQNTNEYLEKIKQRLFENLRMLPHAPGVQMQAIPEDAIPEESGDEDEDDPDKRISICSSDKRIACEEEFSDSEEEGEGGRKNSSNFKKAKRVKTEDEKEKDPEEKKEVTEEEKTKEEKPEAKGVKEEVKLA

HT-29 = experiment: Growth inhibition of human HT-29 cells after 96 hrs by MTT assay; type: functional; settings: Homo sapiens, HT-29, 96 h
MDA-MB-231 = experiment: cells; type: functional; settings: Homo sapiens, MDA-MB-231, 96 h
Description: Growth inhibition of human MDA-MB-231 cells after 96 hrs by MTT assay

cells [4] = type: functional; settings: Homo sapiens, ASPC1, 96 h
Description: Growth inhibition of human Aspc-1 cells after 96 hrs by MTT assay

cells [5] = type: functional; settings: Homo sapiens, PC-3, 96 h
Description: Growth inhibition of human PC3 cells after 96 hrs by MTT assay

A549 = experiment: cells; type: functional; settings: Homo sapiens, A549, 96 h
Description: Growth inhibition of human A549 cells after 96 hrs by MTT assay

[6] = Cytotoxicity against HEK293 cells assessed as growth inhibition after 96 hrs by MTT assay; settings: human
Histone deacetylase 8 = target: T3, Histone deacetylase 8 (Homo sapiens, UniProt Q9BY41); experiment: Inhibition of recombinant human HDAC8 using Boc-Lys(TFA)-AMC as substrate preincubated for 15 mins followed by substrate addition measured after 60 mins by fluorescence-based assay
T3 sequence (Q9BY41 whole entry): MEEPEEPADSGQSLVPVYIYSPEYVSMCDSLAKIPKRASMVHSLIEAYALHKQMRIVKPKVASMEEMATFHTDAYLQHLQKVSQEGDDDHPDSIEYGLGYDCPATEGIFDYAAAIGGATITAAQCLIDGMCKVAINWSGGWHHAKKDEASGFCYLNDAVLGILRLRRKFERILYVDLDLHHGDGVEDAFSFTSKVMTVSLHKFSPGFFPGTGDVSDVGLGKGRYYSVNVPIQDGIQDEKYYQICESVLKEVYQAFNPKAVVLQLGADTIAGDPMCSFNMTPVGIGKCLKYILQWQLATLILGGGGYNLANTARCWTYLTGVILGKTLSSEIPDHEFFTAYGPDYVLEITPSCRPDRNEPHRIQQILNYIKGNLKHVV

Histone deacetylase 3 = Histone deacetylase 3 (Homo sapiens, UniProt O15379); experiment: Inhibition of recombinant human HDAC3 using Boc-Lys(Ac)-AMC as substrate preincubated for 15 mins followed by substrate addition measured after 60 mins by fluorescence-based assay
Sequence of Histone deacetylase 3 (O15379 whole entry): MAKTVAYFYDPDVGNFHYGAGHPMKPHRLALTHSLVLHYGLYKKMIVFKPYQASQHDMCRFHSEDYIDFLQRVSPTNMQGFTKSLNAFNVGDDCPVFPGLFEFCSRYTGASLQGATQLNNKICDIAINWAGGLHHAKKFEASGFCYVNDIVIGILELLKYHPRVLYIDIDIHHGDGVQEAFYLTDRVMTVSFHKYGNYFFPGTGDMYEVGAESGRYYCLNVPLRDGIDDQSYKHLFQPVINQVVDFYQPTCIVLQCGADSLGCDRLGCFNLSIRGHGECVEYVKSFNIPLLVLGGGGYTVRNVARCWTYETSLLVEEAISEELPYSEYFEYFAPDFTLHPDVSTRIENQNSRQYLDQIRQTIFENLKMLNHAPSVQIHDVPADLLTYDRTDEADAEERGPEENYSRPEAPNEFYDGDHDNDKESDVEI

Histone deacetylase 4 = Histone deacetylase 4 (Homo sapiens, UniProt P56524); experiment: Inhibition of recombinant human HDAC4 using Boc-Lys(TFA)-AMC as substrate preincubated for 15 mins followed by substrate addition measured after 60 mins by fluorescence-based assay
Sequence of Histone deacetylase 4 (P56524 whole entry): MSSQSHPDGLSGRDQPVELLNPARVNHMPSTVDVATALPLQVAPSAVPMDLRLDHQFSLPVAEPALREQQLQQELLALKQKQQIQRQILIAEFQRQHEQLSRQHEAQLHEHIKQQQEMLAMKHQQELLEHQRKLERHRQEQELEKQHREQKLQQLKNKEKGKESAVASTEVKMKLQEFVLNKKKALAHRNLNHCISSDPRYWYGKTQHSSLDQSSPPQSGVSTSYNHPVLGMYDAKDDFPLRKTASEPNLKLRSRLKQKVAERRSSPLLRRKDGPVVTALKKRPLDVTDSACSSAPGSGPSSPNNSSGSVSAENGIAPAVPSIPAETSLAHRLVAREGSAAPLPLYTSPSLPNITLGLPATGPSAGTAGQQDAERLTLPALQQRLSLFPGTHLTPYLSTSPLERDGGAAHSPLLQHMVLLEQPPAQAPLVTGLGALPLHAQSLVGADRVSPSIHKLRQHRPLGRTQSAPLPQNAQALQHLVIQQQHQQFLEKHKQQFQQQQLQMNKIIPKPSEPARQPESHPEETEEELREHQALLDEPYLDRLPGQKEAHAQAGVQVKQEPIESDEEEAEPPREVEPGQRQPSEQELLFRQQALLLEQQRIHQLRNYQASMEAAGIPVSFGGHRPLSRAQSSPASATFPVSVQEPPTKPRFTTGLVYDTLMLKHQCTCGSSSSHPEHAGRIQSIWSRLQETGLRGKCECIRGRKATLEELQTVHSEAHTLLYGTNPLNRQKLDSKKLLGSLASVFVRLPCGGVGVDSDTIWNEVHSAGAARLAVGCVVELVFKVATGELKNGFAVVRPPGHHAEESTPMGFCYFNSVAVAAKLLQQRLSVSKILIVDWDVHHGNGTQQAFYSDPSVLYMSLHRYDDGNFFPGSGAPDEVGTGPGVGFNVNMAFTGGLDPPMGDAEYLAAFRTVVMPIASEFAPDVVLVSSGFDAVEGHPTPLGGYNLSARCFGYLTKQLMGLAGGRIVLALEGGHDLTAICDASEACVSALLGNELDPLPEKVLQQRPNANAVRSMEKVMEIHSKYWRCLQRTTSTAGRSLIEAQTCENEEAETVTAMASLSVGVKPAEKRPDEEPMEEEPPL

Histone deacetylase 2 = Histone deacetylase 2 (Homo sapiens, UniProt Q92769); experiment: Inhibition of recombinant human HDAC2 using Boc-Lys(Ac)-AMC as substrate preincubated for 15 mins followed by substrate addition measured after 60 mins by fluorescence-based assay
Sequence of Histone deacetylase 2 (Q92769 whole entry): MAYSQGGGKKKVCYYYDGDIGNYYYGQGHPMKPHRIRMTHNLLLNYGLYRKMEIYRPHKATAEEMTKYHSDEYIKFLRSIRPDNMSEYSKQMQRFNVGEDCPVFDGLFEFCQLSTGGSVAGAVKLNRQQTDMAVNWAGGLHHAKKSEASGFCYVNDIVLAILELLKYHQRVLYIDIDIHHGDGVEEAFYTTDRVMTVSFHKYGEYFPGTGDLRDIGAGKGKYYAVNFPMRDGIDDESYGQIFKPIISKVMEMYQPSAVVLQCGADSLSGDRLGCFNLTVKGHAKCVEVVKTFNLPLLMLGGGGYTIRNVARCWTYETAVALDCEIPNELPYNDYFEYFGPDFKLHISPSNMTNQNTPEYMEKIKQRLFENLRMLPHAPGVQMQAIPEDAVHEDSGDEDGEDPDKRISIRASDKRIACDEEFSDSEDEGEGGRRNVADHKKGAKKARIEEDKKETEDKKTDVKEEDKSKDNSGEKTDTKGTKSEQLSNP

Histone deacetylase 1 [7] = target: T2, Histone deacetylase 1; experiment: Inhibition of HDAC1 in human HCT116 cells assessed as increase in acetylated histone H3 level after 24 hrs by Western blot analysis; type: cell-based; settings: HCT-116
[8] = target: T4, Protein deacetylase HDAC6 (Homo sapiens) (UniProt Q9UBN7); experiment: Inhibition of HDAC6 in human HCT116 cells assessed as increase in acetylated tubulin level after 24 hrs by Western blot analysis; type: cell-based; settings: HCT-116
T4 sequence (whole entry): T1 sequence (Q9UBN7 whole entry)

Histone deacetylase 11 = target: T5, Histone deacetylase 11 (Homo sapiens, UniProt Q96DB2); experiment: Inhibition of recombinant human HDAC11 using Boc-Lys(TFA)-AMC as substrate preincubated for 15 mins followed by substrate addition measured after 60 mins by fluorescence-based assay
T5 sequence (Q96DB2 whole entry): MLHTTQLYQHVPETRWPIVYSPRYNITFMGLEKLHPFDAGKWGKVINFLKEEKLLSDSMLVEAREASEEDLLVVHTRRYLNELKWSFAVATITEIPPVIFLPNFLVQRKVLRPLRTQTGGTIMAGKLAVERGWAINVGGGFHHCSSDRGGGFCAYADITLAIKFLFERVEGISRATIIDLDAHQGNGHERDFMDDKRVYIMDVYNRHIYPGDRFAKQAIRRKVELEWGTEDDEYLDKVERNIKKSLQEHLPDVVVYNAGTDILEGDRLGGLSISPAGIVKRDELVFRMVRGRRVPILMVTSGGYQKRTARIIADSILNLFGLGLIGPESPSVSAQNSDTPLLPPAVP

Compound	GI50 (MCF7) [µM]	pIC50 [1]	GI50 (cells [2]) [µM]	IC50 (Histone deacetylase) [µM]	pIC50 (Histone deacetylase 1 [3])	GI50 (HT-29) [µM]	GI50 (MDA-MB-231) [µM]	GI50 (cells [4]) [µM]	GI50 (cells [5]) [µM]	GI50 (A549) [µM]	GI50 at 96 h [6] [µM]	pIC50 (Histone deacetylase 8)	pIC50 (Histone deacetylase 3)	pIC50 (Histone deacetylase 4)	pIC50 (Histone deacetylase 2)	inhibition (Histone deacetylase 1 [7])	inhibition [8]	pIC50 (Histone deacetylase 11)
COc1cc(-c2cc(C(=O)NCCCCCCS)[nH]n2)cc(OC)c1OC	> 50	7.08	> 50	0.102	6.37	–	–	–	–	–	–	–	–	–	–	–	–	–
O=C(NCCCCCCS)c1cc(C2CCCCC2)n[nH]1	> 50	6.62	> 50	0.364	6.48	–	–	–	–	–	–	–	–	–	–	–	–	–
O=C(NCCCCCCS)c1cc(-c2ccccc2)n[nH]1	> 50	7.52	> 50	0.023	7.01	–	–	–	–	–	–	–	–	–	–	–	–	–
CSCCCCCCNC(=O)c1cc(-c2ccncc2)n[nH]1	> 50	–	> 50	–	–	> 50	> 50	> 50	> 50	> 50	> 50	–	–	–	–	–	–	–
O=C(CCCCCCS)Nc1ccccc1	> 50	–	> 50	–	–	–	–	–	–	–	–	–	–	–	–	–	–	–
Cc1cc(C(=O)NCCCCCCS)[nH]n1	> 50	–	> 50	0.715	–	–	–	–	–	–	–	–	–	–	–	–	–	–
CC(C)C(=O)SCCCCCCNC(=O)c1cc(-c2ccncc2)n[nH]1	15.2	–	22.7	–	–	25.7	> 50	31.7	22.4	16.8	> 50	–	–	–	–	–	–	–
O=C(NCCCCCCS)c1cc(-c2ccc(F)cc2)n[nH]1	> 50	–	> 50	0.245	–	–	–	–	–	–	–	–	–	–	–	–	–	–
O=C(NCCCCCCS)c1cc(-c2c[nH]c3ccccc23)n[nH]1	18.2	7.48	> 50	0.07	6.82	–	–	–	–	–	–	–	–	–	–	–	–	–
CCC(=O)SCCCCCCNC(=O)c1cc(-c2ccncc2)n[nH]1	> 50	–	> 50	–	–	> 50	> 50	> 50	> 50	> 50	> 50	–	–	–	–	–	–	–
O=C(NCCCCCCS)c1cc(-c2ccc(-c3ccccc3)cc2)n[nH]1	> 50	6.97	> 50	0.043	6.65	–	–	–	–	–	–	–	–	–	–	–	–	–
O=C(NCCCCCCS)c1cc(-c2ccncc2)n[nH]1	12.2	7.74	25.3	0.008	7.92	10.2	> 50	36.9	11	14.4	17.5	< 5.00	7.96	< 5.00	7.14	Dose-dependent effect	Dose-dependent effect	< 5.00
O=C(NCCCCCCS)c1cc(-c2ccc3ccccc3c2)n[nH]1	> 50	6.63	> 50	0.102	6.88	–	–	–	–	–	–	–	–	–	–	–	–	–
O=C(NCCCCCCS)c1cc(-c2cnccn2)n[nH]1	> 50	7.66	> 50	0.018	7.82	–	–	–	–	–	–	< 5.00	7.64	< 5.00	7.17	–	–	< 5.00
COc1ccc(-c2cc(C(=O)NCCCCCCS)[nH]n2)cc1OC	30.8	7.25	> 50	0.056	6.51	–	–	–	–	–	–	–	–	–	–	–	–	–
O=C(NCCCCCCS)c1ccn[nH]1	> 50	7.04	> 50	0.081	6.28	–	–	–	–	–	–	–	–	–	–	–	–	–
CCCCCCCC/C=C\CCCCCCCC(=O)SCCCCCCNC(=O)c1cc(-c2ccncc2)n[nH]1	31.1	–	39.3	–	–	23.5	> 50	> 50	> 50	33.3	> 50	–	–	–	–	–	–	–
O=C(NCCCCCCS)c1cc(-c2ccccn2)n[nH]1	26.8	7.57	> 50	0.033	6.91	–	–	–	–	–	–	–	–	–	–	–	–	–
CCCC(=O)SCCCCCCNC(=O)c1cc(-c2ccncc2)n[nH]1	12.1	–	23.5	–	–	12.4	> 50	28.1	32.1	15.1	> 50	–	–	–	–	–	–	–
O=C(NCCCCCCS)c1cc(-c2cccc3ccccc23)n[nH]1	> 50	6.61	> 50	0.608	6.37	–	–	–	–	–	–	–	–	–	–	–	–	–
CC(=O)SCCCCCCNC(=O)c1cc(-c2ccncc2)n[nH]1	24.9	–	41.1	–	–	23.1	> 50	> 50	36	18	> 50	–	–	–	–	–	–	–
O=C(OCc1ccccc1)SCCCCCCNC(=O)c1cc(-c2ccncc2)n[nH]1	8.37	–	18.2	–	–	22	24.7	32.3	15.4	13.4	19.7	–	–	–	–	–	–	–
C=CCOC(=O)SCCCCCCNC(=O)c1cc(-c2ccncc2)n[nH]1	12.6	–	32.9	–	–	11.9	36	27.5	24.8	15.2	27.5	–	–	–	–	–	–	–
COc1ccc(-c2cc(C(=O)NCCCCCCS)[nH]n2)cc1	14.8	6.78	> 50	0.15	–	–	–	–	–	–	–	–	–	–	–	–	–	–

Source: ChEMBL document CHEMBL3758091, “Identification of N-(6-mercaptohexyl)-3-(4-pyridyl)-1H-pyrazole-5-carboxamide and its disulfide prodrug as potent histone deacetylase inhibitors with in vitro and in vivo anti-tumor efficacy” (Eur J Med Chem, 2016)
